In ChEMBL document CHEMBL4616677, “Preclinical Lead Optimization of a 1,2,4-Triazole Based Tankyrase Inhibitor” (J Med Chem, 2020):
pIC50: −log10 of the molar value. Active and inactive are the calls of the source. The rule behind the calls is not given here.

Columns and labels:
[1] = Clearance in ICR mouse at 5 mg/kg, po by LC-MS/MS analysis; assay type: ADME, organism-based; settings: in vivo
[2] = Apparent permeability across apical to basolateral side in human Caco2 cells at 10 uM measured after 2 hrs by lucifer yellow based LC-MS/MS analysis; assay type: ADME, cell-based; settings: Caco-2
[3] = biological target: Poly [ADP-ribose] polymerase 1 (Homo sapiens, UniProt P09874); assay: Inhibition of ARTD1 (unknown origin) measured after 30 mins in presence of NAD+ by fluorescence assay
[4] = biological target: Protein mono-ADP-ribosyltransferase PARP4 (Homo sapiens, UniProt Q9UKK3)
[5] = biological target: T1, Protein mono-ADP-ribosyltransferase PARP3 (Homo sapiens, UniProt Q9Y6F1); assay: Inhibition of ARTD3 (unknown origin) measured after 4 hrs in presence of NAD+ by fluorescence assay
T1 sequence (Q9Y6F1 whole entry): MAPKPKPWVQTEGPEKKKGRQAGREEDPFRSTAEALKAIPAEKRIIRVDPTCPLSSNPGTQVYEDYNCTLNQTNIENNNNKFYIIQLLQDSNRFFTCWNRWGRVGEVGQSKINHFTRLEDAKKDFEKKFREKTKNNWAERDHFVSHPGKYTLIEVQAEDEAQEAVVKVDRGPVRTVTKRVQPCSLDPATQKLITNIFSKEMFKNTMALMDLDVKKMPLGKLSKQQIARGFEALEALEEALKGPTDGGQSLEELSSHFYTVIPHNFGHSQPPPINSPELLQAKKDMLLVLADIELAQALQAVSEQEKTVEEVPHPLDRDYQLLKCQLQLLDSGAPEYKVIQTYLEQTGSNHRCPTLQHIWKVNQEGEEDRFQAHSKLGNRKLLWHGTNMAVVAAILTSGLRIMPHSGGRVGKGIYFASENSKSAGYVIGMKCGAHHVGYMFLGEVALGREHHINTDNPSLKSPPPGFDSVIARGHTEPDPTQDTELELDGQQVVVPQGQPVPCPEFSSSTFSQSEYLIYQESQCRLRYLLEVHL

[6] = biological target: Poly [ADP-ribose] polymerase 2 (Homo sapiens, UniProt Q9UGN5); assay: Inhibition of ARTD2 (unknown origin) measured after 30 mins in presence of NAD+ by fluorescence assay
[7] = Genotoxicity in Salmonella typhimurium TA100 in presence or absence of rat S9 fraction by mini-Ames test; assay type: toxicity; settings: salmonella enterica subsp. enterica serovar typhimurium
RKO = assay: Antiproliferative activity against APC wild-type human RKO cells at 10 uM measured after 5 days by MTS assay; assay type: functional, cell-based
[8] = Genotoxicity in Salmonella typhimurium TA98 in presence or absence of rat S9 fraction by mini-Ames test; assay type: toxicity; settings: salmonella enterica subsp. enterica serovar typhimurium

Poly [ADP-ribose] polymerase 2, sequence (Q9UGN5 whole entry): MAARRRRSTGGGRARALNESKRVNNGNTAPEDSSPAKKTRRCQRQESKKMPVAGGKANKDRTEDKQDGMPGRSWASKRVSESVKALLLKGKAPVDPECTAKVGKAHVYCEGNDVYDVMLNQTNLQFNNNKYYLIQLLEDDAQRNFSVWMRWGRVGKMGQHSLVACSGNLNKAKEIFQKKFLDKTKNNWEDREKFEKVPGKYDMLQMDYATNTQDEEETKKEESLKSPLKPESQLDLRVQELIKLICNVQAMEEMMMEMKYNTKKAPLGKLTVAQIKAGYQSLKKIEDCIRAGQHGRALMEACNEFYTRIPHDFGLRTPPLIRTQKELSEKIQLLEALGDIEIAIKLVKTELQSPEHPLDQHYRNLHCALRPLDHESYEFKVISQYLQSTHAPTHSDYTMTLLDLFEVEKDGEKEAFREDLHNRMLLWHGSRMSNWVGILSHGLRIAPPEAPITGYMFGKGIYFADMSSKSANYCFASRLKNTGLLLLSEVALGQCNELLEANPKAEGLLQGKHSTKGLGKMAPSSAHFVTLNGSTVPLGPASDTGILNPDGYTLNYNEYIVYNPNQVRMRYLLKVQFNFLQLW
Protein mono-ADP-ribosyltransferase PARP4, sequence (Q9UKK3 whole entry): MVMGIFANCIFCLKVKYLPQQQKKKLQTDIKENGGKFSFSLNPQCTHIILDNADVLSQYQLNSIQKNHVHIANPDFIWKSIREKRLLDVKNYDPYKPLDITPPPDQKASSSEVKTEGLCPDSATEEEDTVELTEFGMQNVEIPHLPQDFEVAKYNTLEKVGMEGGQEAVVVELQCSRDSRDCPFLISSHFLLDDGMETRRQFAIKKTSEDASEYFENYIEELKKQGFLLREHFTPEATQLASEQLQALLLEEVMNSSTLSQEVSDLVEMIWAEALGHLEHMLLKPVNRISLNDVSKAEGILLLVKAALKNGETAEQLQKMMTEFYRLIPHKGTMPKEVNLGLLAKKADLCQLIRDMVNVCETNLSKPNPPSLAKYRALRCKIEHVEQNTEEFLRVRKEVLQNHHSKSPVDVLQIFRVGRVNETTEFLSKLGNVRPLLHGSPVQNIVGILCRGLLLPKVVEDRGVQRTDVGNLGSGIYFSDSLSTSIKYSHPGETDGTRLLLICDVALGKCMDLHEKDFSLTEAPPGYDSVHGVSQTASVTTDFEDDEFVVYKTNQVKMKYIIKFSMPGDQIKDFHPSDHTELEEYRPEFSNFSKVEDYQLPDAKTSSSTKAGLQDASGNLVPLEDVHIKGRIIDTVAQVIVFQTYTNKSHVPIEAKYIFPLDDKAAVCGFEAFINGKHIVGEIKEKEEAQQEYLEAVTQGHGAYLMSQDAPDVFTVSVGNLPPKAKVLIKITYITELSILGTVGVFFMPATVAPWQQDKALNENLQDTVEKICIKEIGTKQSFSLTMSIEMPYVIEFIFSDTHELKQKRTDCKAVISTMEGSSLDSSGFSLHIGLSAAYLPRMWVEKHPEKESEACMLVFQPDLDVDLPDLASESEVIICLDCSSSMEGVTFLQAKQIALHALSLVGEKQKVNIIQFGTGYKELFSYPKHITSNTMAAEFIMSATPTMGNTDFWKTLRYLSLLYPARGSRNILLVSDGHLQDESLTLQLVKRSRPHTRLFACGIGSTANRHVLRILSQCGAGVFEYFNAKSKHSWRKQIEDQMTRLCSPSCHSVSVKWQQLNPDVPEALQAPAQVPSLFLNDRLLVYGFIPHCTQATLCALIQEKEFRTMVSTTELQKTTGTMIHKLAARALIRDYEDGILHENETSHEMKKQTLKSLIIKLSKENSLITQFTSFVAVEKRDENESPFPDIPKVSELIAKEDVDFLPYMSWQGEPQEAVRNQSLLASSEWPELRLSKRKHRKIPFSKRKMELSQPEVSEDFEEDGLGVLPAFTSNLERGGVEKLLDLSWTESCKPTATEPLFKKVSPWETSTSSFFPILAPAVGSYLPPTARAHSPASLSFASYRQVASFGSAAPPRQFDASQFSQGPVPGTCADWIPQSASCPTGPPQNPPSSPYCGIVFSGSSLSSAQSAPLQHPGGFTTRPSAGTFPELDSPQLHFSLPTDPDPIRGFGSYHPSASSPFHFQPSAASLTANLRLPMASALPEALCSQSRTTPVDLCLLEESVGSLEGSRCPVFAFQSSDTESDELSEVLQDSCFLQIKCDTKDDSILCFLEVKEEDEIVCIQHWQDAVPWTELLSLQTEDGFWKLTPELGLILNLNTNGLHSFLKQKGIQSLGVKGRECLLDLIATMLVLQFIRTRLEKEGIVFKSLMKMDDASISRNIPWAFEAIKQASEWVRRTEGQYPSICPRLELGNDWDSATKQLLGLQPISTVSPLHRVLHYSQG
Poly [ADP-ribose] polymerase 1, sequence (P09874 whole entry): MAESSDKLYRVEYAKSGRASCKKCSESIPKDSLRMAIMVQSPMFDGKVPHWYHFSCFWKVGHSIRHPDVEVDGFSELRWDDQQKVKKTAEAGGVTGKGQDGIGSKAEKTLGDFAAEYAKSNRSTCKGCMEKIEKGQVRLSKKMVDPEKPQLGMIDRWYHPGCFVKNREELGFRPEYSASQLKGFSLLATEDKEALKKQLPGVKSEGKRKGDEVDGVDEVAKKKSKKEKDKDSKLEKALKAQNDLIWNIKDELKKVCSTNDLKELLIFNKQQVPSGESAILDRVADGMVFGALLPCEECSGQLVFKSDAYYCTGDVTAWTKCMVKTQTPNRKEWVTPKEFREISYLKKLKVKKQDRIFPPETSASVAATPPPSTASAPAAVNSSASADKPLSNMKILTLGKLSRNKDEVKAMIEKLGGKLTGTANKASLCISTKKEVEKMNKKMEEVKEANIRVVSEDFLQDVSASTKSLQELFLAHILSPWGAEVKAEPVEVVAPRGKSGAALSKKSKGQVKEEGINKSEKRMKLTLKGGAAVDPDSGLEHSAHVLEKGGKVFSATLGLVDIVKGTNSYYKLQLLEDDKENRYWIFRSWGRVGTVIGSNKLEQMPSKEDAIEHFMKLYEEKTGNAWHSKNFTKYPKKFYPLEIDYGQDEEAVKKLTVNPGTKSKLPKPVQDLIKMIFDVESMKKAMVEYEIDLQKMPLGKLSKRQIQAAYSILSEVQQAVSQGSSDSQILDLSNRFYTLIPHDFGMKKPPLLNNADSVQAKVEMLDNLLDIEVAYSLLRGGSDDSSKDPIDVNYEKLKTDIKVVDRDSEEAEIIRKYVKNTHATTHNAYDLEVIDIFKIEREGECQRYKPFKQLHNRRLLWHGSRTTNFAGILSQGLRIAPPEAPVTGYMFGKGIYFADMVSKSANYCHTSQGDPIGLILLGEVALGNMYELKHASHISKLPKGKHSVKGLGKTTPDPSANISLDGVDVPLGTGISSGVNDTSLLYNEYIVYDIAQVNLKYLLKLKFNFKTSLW

SMILES | CL/F [1] [mL/min/kg] | Papp A→B at 2 h, 10 µM [2] [×10⁻⁶ cm/s] | pIC50 [5] | also measured
CS(=O)(=O)c1ccc(-c2nnc([C@H]3C[C@H](NC(=O)c4cccc5cccnc45)C3)n2-c2ccccc2F)nc1 | 28.2 | – | – | –
O=C(N[C@H]1C[C@H](c2nnc(-c3ccccn3)n2-c2ccccc2F)C1)c1ccnc2cc(F)cnc12 | 16.5 | – | – | –
O=C(N[C@H]1C[C@H](c2nnc(-c3ccncn3)n2-c2ccccc2Cl)C1)c1ccnc2cccnc12 | – | 3.1 | – | –
N#Cc1ccc2c(c1)[nH]c(=O)n2[C@H]1C[C@H](c2nnc(-c3ccncn3)n2-c2ccccc2Cl)C1 | – | – | < 5.00 | pIC50 [3]: < 5.00; pIC50 [4]: < 5.00; pIC50 [6]: < 5.00
CCOc1ccc(-c2nnc([C@H]3C[C@H](NC(=O)c4ccccn4)C3)n2-c2ccccc2F)nc1 | 34.8 | 39.5 to 40 | < 5.00 | Activity [7]: Non-Toxic; Activity (RKO): Active; Activity [8]: Non-Toxic
